Reference: paper PMC2777269 (Nature medicine, 2002)
Where two headings read alike, the source gives them in different places. Blank lines part the entries; values can stand above or below the molecule they belong to. Ends that are not written are not given here. * marks the point of attachment. 125I = [125I]*

Columns and labels:
[1] = target: T1, human PMNs (ALXR/FPRL1) (Homo sapiens, UniProt P25090); assay: [^125I-Tyr]Ac2-26 binding, isolated human PMNs in suspension; conditions: 30 nM [^125I-Tyr]Ac2-26, 40 min, 4 °C, duplicates, n = 3
T1 sequence (P25090 1-351): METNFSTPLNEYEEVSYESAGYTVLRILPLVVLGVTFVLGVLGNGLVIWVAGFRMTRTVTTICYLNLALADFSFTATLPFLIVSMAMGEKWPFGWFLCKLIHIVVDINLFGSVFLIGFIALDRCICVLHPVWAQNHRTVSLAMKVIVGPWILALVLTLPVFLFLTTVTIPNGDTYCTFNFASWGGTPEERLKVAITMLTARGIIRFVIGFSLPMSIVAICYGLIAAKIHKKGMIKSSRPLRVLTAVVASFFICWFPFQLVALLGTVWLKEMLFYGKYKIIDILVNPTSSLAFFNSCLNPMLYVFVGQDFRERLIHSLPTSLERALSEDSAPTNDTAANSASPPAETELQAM

[2] = target: T2, adherent human PMNs (ALXR/FPRL1) (Homo sapiens, UniProt P25090); assay: [^125I-Tyr]Ac2-26 binding, adherent human PMNs; conditions: 30 nM [^125I-Tyr]Ac2-26, duplicates, n = 3
T2 sequence (P25090 1-351): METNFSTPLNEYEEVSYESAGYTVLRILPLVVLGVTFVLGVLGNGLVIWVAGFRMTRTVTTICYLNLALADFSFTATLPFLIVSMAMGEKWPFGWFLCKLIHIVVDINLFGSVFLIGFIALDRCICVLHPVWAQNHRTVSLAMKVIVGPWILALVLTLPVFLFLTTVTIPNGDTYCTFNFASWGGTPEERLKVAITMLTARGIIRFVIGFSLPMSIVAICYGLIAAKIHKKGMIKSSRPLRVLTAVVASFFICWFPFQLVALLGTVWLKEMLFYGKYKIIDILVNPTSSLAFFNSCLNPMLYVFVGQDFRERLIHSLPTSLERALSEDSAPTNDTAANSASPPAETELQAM

[3] = target: T3, recombinant ALXR/FPRL1 (Homo sapiens, UniProt P25090); conditions: HEK293-ALXR, 30 nM [^125I-Tyr]Ac2-26, 40 min, 4 °C; duplicates, n = 3
T3 sequence (P25090 1-351): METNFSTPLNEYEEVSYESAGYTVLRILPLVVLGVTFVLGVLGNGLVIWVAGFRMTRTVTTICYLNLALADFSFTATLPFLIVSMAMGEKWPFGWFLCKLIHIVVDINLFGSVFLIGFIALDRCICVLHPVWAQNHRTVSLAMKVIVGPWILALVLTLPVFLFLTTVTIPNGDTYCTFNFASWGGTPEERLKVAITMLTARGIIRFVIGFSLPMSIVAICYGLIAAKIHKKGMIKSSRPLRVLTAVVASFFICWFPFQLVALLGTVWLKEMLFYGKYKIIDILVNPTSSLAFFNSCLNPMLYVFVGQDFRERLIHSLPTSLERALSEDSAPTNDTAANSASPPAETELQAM

[4] = system: monocytes/macrophages; conditions: nonphlogistic; cited from earlier work
[5] = system: human LTB4 receptor (BLT1); conditions: BLT1-transfected HEK293 cells; cited from earlier work
[6] = system: human PMNs; assay: Human PMN chemotaxis; conditions: n = 3
[7] = system: recombinant ALXR/FPRL1 (CHO-Gqo-ALXR cells); assay: Chemotaxis of CHO cells expressing ALXR and Gqo chimera; conditions: ATLa1 100 nM, Ac2-26 100 μM; 4 h, 37 °C; n = 3
[8] = system: Zymosan A-driven PMN infiltration; assay: Zymosan A-initiated PMN infiltration, 6-day-old murine air pouch; conditions: 4 h; for inhibition of Zymosan A-driven PMN infiltration: mean, n = 8
[9] = system: 15-epi-LXA4; assay: 15-epi-LXA4 generation in murine air-pouch exudates; type: in vivo, Swiss Albino mice; conditions: ASA 300 μg; 4 and 16 h; n = 8
[10] = system: PMN transmigration and adhesion; conditions: cited from earlier work
[11] = system: human PMNs; assay: Ca^2+ mobilization in Fura2-AM-loaded human PMNs
[12] = target: T4, human recombinant lipoxin A4 receptor (ALXR/FPRL1) expressed on HEK293 cells (human, UniProt P25090 1-351); assay: radioligand binding
T4 sequence (looked up): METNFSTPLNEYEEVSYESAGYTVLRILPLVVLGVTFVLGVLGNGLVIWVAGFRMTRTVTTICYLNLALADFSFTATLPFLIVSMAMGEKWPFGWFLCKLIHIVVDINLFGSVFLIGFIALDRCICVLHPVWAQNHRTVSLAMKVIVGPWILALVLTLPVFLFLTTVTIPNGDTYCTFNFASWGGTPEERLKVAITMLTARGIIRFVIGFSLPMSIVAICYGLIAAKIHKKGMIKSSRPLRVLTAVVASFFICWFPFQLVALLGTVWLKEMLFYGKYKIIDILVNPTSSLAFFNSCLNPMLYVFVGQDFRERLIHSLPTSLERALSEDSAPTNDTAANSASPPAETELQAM

[13] = target: T4, human recombinant lipoxin A4 receptor …; assay: radioligand binding; remark: listed apart in the source
[14] = target: T5, human ALXR (ALXR/FPRL1) (Homo sapiens, UniProt P25090); conditions: at much higher concentrations than LXA4; cited from earlier work
T5 sequence (P25090 1-351): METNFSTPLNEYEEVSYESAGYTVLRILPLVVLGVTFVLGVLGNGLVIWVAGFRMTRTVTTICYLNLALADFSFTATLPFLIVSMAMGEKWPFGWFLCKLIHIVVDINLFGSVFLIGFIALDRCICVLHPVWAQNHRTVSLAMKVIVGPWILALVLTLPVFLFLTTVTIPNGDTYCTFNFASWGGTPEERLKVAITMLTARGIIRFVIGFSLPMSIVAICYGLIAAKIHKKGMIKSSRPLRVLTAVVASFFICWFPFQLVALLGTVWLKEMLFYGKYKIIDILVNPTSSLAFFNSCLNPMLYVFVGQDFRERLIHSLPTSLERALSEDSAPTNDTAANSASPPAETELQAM

[15] = system: ALXR/FPRL1; conditions: cited from earlier work
[16] = system: human PMN oxidative burst; conditions: cited from earlier work
[17] = system: ALXR/FPRL1; assay: ANXA1/ALXR co-immunoprecipitation, human PMNs; type: binding; conditions: non-adherent human PMNs (control)
[18] = system: ANXA1; assay: ANXA1 generation in murine air-pouch exudates; type: in vivo, Swiss Albino mice; conditions: 4 h versus 16 h; n = 8
[19] = system: formyl peptide receptors (FPRs); conditions: partially diminished; cited from earlier work
[20] = system: PMN transmigration and phagocytosis; conditions: in vitro and in vivo; cited from earlier work

- competition for specific [^125I-Tyr]Ac2-26 binding, adherent PMNs (in words) [2]: retained their ability to compete
- competition for specific [^125I-Tyr]Ac2-26 binding (in words) [3]: specifically competed
Molecule: CCCCC[C@H](O)/C=C/C=C\C=C\C=C\[C@@H](O)[C@@H](O)CCCC(=O)O [LXA4, lipoxin A4, reference compound]
- competition for [^125I-Tyr]Ac2-26 binding to human PMN (in words) ([1]; suspension): competed for [^125I-Tyr]Ac2-26 peptide binding to human PMN
- enhanced uptake of apoptotic neutrophils by monocytes/macrophages [4]: enhance the uptake of apoptotic neutrophils
- competition for [^3H]LTB4 binding [5]: neither LXA4 (ref. [18]) nor Ac2-26 peptide competed

Molecule: CCCCCC(C)(O)/C=C/C=C\C=C\C=C\[C@@H](O)[C@@H](O)CCCC(=O)O (mixture of isomers) [ATLa1, 15(R/S)-methyl-LXA4]
- block of Ac2-26-evoked chemotaxis, human PMNs ([6]; ATLa1 10 or 100 nM, 30 min, 37 °C, Ac2-26 1–10 μM): clearly blocked Ac2-26 evoked chemotaxis
- chemotactic activity, human PMNs ([6]; Ac2-26 1–10 μM or ATLa1 alone 10–100 nM): did not evoke chemotaxis
- chemotaxis responses, CHO-Gqo-ALXR cells [7]: clear chemotaxis responses

Molecule: O=C(O)CCC[C@H](O)[C@H](O)/C=C/C=C/C=C\C=C\[C@@H](O)COc1ccc(F)cc1 [ATLa, 15-epi-16-(para-fluoro)-phenoxy-LXA4]
- inhibition of PMN infiltration, i.v. ATLa 5 μg ([8]; 5 μg per mouse (~12 nmol) i.v. 15 min before Zymosan A, n = 6–8): ~ 40%
- inhibition of PMN infiltration, administered (in words) ([8]; ATLa 0.5–5 μg, Ac2-26 5–100 μg i.v., n = 6–8): potent inhibitors of PMN infiltration

Molecule: Ac2-6: ANXA1-derived peptide (Ac-AMVSE; UniProt P04083 2-6, looked up, fragment)
- inhibition of PMN infiltration, i.v. peptides (in words) ([8]; i.v. tail vein 15 min prior to 1 mg Zymosan A, 6–12 mice): inhibited PMN infiltration in a dose-dependent fashion

Molecule: CC(=O)Oc1ccccc1C(=O)O [ASA, Aspirin, reference compound]
- 15-epi-LXA4 (ATL) generation in ASA-treated animals [9]: generated and present in ASA-treated animals at 4 hours that diminished by 16 hours
- inhibition of Zymosan A-driven PMN infiltration ([8]; ASA alone 1 mg into pouch 15 min before Zymosan A (1 mg)): 36%

Molecule: C[C@@H]1C[C@H]2[C@@H]3CCC4=CC(=O)C=C[C@]4(C)[C@@]3(F)[C@@H](O)C[C@]2(C)[C@@]1(O)C(=O)CO [DEX, dexamethasone, reference compound]
- inhibition of Zymosan A-driven PMN infiltration ([8]; DEX alone 10 μg into pouch 15 min before Zymosan A (1 mg)): 53%

Molecule: O=c1c(-c2ccc(O)cc2)coc2cc(O)cc(O)c12 [genistein, reference compound]
- modulation of LXA4-regulated PMN transmigration and adhesion [10]: modulates LXA4-regulated PMN transmigration and adhesion
- block of Ac2-26 calcium mobilization response ([11]; Supplementary Fig. B, panel c): partially blocked

- IC50 [12]: ~300 nM
- IC50 [13]: ~20000 nM
Molecule: Ac-AMVSEFLKQAW [ANXA1-derived peptide Ac2-12]

- IC50 ([1]; read-out: apparent IC50, competition for specific [^125I-Tyr]Ac2-26 binding, human PMNs in suspension): ~1000 nM
- competition for specific [^125I-Tyr]Ac2-26 binding, adherent PMNs (in words) [2]: retained their ability to compete
B1: SAA: a proteolytic product of the acute phase response (protein, UniProt P0DJI8 19-122, looked up)
Serum amyloid A-1 protein: RSFFSFLGEAFDGARDMWRAYSDMREANYIGSDKYFHARGNYDAAKRGPGGAWAAEVITDARENIQRFFGHGAEDSLADQAANEWGRSGKDPNHFRPAGLPEKY
- competition for specific [^3H]LXA4 binding (in words) [14]: competes for specific [^3H]LXA4 binding
- activation of HEK293 cells expressing ALXR/FPRL1 [15]: activates HEK293 cells expressing ALXR/FPRL1
- inhibition of human PMN oxidative burst [16]: inhibits human PMN oxidative burst

- IC50 [12]: ~300 nM
Molecule: Ac-AMVSEFLKQAWFIENEEQEYVQTVK [ANXA1-derived peptide Ac2-26 (unlabelled)]

B2: ANXA1: protein of 346 amino acids and a member of the annexin superfamily, highly abundant PMN-derived protein induced by glucocorticoids (protein, UniProt P04083 2-346, looked up)
Annexin A1: AMVSEFLKQAWFIENEEQEYVQTVKSSKGGPGSAVSPYPTFNPSSDVAALHKAIMVKGVDEATIIDILTKRNNAQRQQIKAAYLQETGKPLDETLKKALTGHLEEVVLALLKTPAQFDADELRAAMKGLGTDEDTLIEILASRTNKEIRDINRVYREELKRDLAKDITSDTSGDFRNALLSLAKGDRSEDFGVNEDLADSDARALYEAGERRKGTDVNVFNTILTTRSYPQLRRVFQKYTKYSKHDMNKVLDLELKGDIEKCLTAIVKCATSKPAFFAEKLHQAMKGVGTRHKALIRIMVSRSEIDMNDIKAFYQKMYGISLCQAILDETKGDYEKILVALCGGN
- co-immunoprecipitation of ANXA1 with ALXR/FPRL1, non-adherent PMNs [17]: not co-immunoprecipitated
- ANXA1 generation in exudates [18]: low at 4 hours and much higher at 16 hours
- competition for specific [^125I-Tyr]Ac2-26 binding (in words) [3]: competed for [^125I-Tyr]Ac2-26 binding with similar affinity
- reduction of ANXA1 interactions with circulating leukocytes or peritoneal macrophages in FPR-deficient mice [19]: ~ 40%
- inhibition of PMN transmigration and phagocytosis [20]: potent inhibitors of PMN transmigration and phagocytosis

- Kd [13]: ~900 nM
Molecule: Ac-AMVSEFLKQAWFIENEEQEY(125I)VQTVK [[125I-Tyr]Ac2-26 peptide (radio-iodinated ANXA1-derived peptide Ac2-26)]

B3: hrANXA1: human recombinant annexin 1 (protein)
chain: MAMVSEFLKQAWFIENEEQEYVQTVKSSKGGPGSAVSPYPTFNPSSDVAALHKAIMVKGVDEATIIDILTKRNNAQRQQIKAAYLQETGKPLDETLKKALTGHLEEVVLALLKTPAQFDADELRAAMKGLGTDEDTLIEILASRTNKEIRDINRVYREELKRDLAKDITSDTSGDFRNALLSLAKGDRSEDFGVNEDLADSDARALYEAGERRKGTDVNVFNTILTTRSYPQLRRVFQKYTKYSKHDMNKVLDLELKGDIEKCLTAIVKCATSKPAFFAEKLHQAMKGVGTRHKALIRIMVSRSEIDMNDIKAFYQKMYGISLCQAILDETKGDYEKILVALCGGN
- effect on cellular response to subsequent fMLP (in words) ([11]; Ac2-26 10 μM, hrANXA1 0.5 μM): did not affect the cellular response
